Tests used:
[1] = Pharmacokinetic studies in Sprague-Dawley (SD) rats: plasma GlcNBu after oral gavage of test compound; assay type: in vivo; design: key to AUC0-t / AUC0-∞ / t1/2z / Tmax / Vz/F / CLz/F / Cmax: (—): not detected; conditions: 0.93 mmol/kg; for AUC0-t / AUC0-∞ / CLz/F / Cmax / Tmax / Vz/F / t1/2z: Table 5, plasma GlcNBu after oral gavage of indicated compound
Experimental: A test compound is dissolved in water at a concentration determined by the desired dose and dosing volume for the specific animal to which the compound is to be administered. A calculated volume of dosing solution is administered to the animal (PO, SQ, IP, or IV). A blood sample is collected following administration of the test compound at specific time points (such as 0 minutes (min), 5 min, 10 min, 15 min, 30 min, 1 hour (h), 1.5 h, 2 h, 3 h, 4, 6 h, etc.). The blood sample is converted to a plasma sample using standard techniques. The plasma samples are analyzed to determine the concentration of the test compound and, in some cases, GlcNBu.
According to the above general procedure, SD rats were grouped randomly into groups of six (n=6). The test compound, GlcNBu or a compound provided herein, was administered to the animals by oral gavage at a dose of 0.93 mmol/kg. For illustration purposes, GlcNBu was given at an oral dose of 232 mg/kg (0.93 mmol/kg), and compound 16 was administered at an equal molar dose (0.93 mmol/kg, i.e., 362 mg/kg). At pre-set time points, blood was taken through orbital venous plexus extraction, and the samples were analyzed using LC/MS-MS to determine the GlcNBu concentration in the plasma.
In the figure, Curves labeled with -●- and -▴-represent plasma GlcNBu concentration following oral administration of GlcNBu (232 mg/kg, or 0.93 mmol/kg) and compound 16 ([…], or 0.93 mmol/kg), respectively. […] FIG. 2A and FIG. 2B show examples of other compounds of the invention, presented in plasma GlcNBu concentration versus time curves; a summary of pharmacokinetic parameters for these compounds is given in Table 4 and Table 5.

[2] = test system: Monosodium Iodoacetate-Induced Osteoarthritis (MIA) Model in Rat Knee; test: Monosodium iodoacetate-induced osteoarthritis (MIA) model in rat knee: weight bearing and histology; assay type: in vivo
Experimental: Osteoarthritis was induced by intra-articular (i.a.) injection of MIA solution in the rat knee joint as follows: Briefly, rats were anesthetized with isoflurane and given a single i.a. administration of 2 mg of MIA dissolved in saline through the intrapatellar ligament of the right knee. MIA was administered in a volume of 50 μL. Basal readings were established using a group of control rats injected with 10% ethanol in water. Rats were randomized by initial body weight to groups of 6 or 7. After MIA injection, the MIA groups began treatment with either vehicle, or a test compound at a preset dose regime for a period of 28 days. Clinical observations were recorded, including body weight, joint swelling, and weight bearing, on pre-induction day (day 0), day 3, 5, 7, 14, 21 and/or 28. At the end of the study, the animals were euthanized by CO2 and sacrificed.
Joint samples including the tibia and femur were sectioned in the coronal plane and stained using both H&E and Safranin-O. Knee joints were examined and scored for cartilage degeneration, the presence of osteophytes, the amount and extent of calcified cartilage and subchondral bone damage, and the amount of synovial membrane inflammation using the Osteoarthritis Research Society International (OARSI) scoring system put forth in 2010 (Kraus, V. B. et al., Osteoarthritis Cartilage, 2010, Suppl 3:535-52).
Studies of compound 16 in the MIA model were conducted as described above.

[3] = test system: Medial Meniscus Transection (MMT) Model in Rats; test: Medial meniscus transection (MMT) model in rats: weight bearing and histopathology; assay type: in vivo, rat
From the text: In the rat MMT model, the unilateral knee (right knee) was cleaned and prepped for surgery. An incision was made over the medial aspect of the femoro-tibial joint. The medial collateral ligament was exposed via blunt dissection and transected to reflect the meniscus toward the femur. A full thickness cut was made through the meniscus at its narrowest point. The joint space was returned to normal, and the skin was closed and the animal allowed to recover. For the present study, at second day post MMT induction animals, G1 and G2 animals were treatment with vehicle and test compound 16 respectively. Animals were dosed 4 times every day, and were dosed by gavage for 4 weeks.

[4] = test system: destructive arthritis rat model; conditions: cited from earlier work
OVX rat = conditions: feeding in the OVX rat; cited from earlier work
[5] = humans, polyvalent or monovalent form, compared with glucosamine; cited from earlier work

CCCC(=O)N[C@H]1C(OCc2ccccc2)O[C@H](CO)[C@@H](O)[C@@H]1O (stereo partly drawn) [Compound 75, 1-O-benzyl-2-N-butyryl-D-glucosamine]
AUC0-t [1]: (—)
AUC0-∞ [1]: (—)
CLz/F [1]: (—)
Cmax [1]: (—)
Tmax [1]: (—)
Vz/F [1]: (—)
t1/2z [1]: (—)

CCCC(=O)N[C@H]1C(O)O[C@H](COC(=O)NCCCC(=O)O)[C@@H](O)[C@@H]1O (stereo partly drawn) [Compound 94, 2-N-butyryl-6-O-((3-carboxy-1-propyl)aminocarbonyl)-D-glucosamine]
AUC0-t [1]: (—)
AUC0-∞ [1]: (—)
CLz/F [1]: (—)
Cmax [1]: (—)
Tmax [1]: (—)
Vz/F [1]: (—)
t1/2z [1]: (—)

CCCC(=O)N[C@H]1C(OCc2ccccc2)O[C@H](CO)[C@@H](O)[C@@H]1OCc1ccccc1 (stereo partly drawn) [Compound 76, 2-N-butyryl-1,3-di-O-benzyl-D-glucosamine]
AUC0-t [1]: (—)
AUC0-∞ [1]: (—)
CLz/F [1]: (—)
Cmax [1]: (—)
Tmax [1]: (—)
Vz/F [1]: (—)
t1/2z [1]: (—)

CCCC(=O)N[C@H]1C(O)O[C@H](COC(=O)CCC)[C@@H](OC(=O)CCC)[C@@H]1O (stereo partly drawn) [Compound 16, 2-N-butyryl-4,6-O-tributyryl-D-glucosamine]
articular cartilage degeneration ([2]; MIA-induced OA rat model): slowed the articular cartilage degeneration
weight bearing on the back-right leg ([2]; day 5, all compound-treated groups (234 and 468 mg/kg) vs vehicle): significant increases
weight bearing ([2]; day 14, high dose (G3, 468 mg/kg) vs vehicle): significant increases
osteophytes (histology) ([2]; high dose group (468 mg/kg) compared with vehicle group): significantly decreased
other histological parameters (mean values) ([2]; high dose treated group (468 mg/kg) vs vehicle): clear trend of lowering all other mean values
plasma drug exposure ([1]; versus GlcNBu at mole-equivalent oral dose): improved plasma drug exposure significantly
degeneration changes of chondrocyte clustering ([3]; G2 as compared with G1): significantly lower
weight bearing on the right paw ([3]; G2 as compared with G1 on Day 3 and Days 14-28): significantly increased
histology parameters ([3]; G2 vs G1, all parameters): values in all parameters lower

CCCC(=O)N[C@H]1C(O)O[C@H](COC(=O)CCC(=O)O)[C@@H](OC(=O)CCC(=O)O)[C@@H]1O (stereo partly drawn) [Compound 79, 2-N-butyryl-4,6-di-O-(4-hydroxy-4-oxo-butyryl)-D-glucosamine]
AUC0-t [1]: (—)
AUC0-∞ [1]: (—)
CLz/F [1]: (—)
Cmax [1]: (—)
Tmax [1]: (—)
Vz/F [1]: (—)
t1/2z [1]: (—)

CCCC(=O)N[C@H]1C(O)O[C@H](CO)[C@@H](O)[C@@H]1O (stereo partly shown) [GlcNBu, N-butyryl glucosamine]
subchondral bone structure [4]: preserved strikingly the subchondral bone structure
bone mineral and biomechanical properties (OVX rat): preserves bone mineral and some biomechanical properties

CC(=O)N[C@H]1C(O)O[C@H](CO)[C@@H](O)[C@@H]1O (stereo partly shown) [N-acetylglucosamine]
half-life [5]: longer half-life than glucosamine
